From US10501421B1, “Substituted benzimidazoles as modulators of Ras signaling” (VANDERBILT UNIVERSITY, priority 2017, dated 2019)

Tests used:
[1] = tested on: H727 lung cancer cell lines (G12V K-Ras mutation); test: Inhibition of cancer cell proliferation (CellTiter-Glo); format: cell-based; conditions: Homo sapiens, NCI-H727, 72 h; H727 cells, 3 days treatment, CellTiter-Glo; read-out: Cell proliferation activity (H727 cancer cell line proliferation IC50)
Summary of the method: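 H727 cells (K-Ras G12V), 1000/well, plated overnight then exposed to a compound dose range for 3 days at 37 °C. Proliferation by CellTiter-Glo, normalized to DMSO; IC50 from four-parameter variable-slope fit.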

[2] = molecular target: Ras GEF SOS (Son of Sevenless) (Homo sapiens, UniProt Q07889); test: SOS-mediated nucleotide exchange on Ras (BODIPY-GDP fluorescence); format: biochemical; conditions: SOS-mediated exchange of BODIPY-GDP for GTP on Ras
Summary of the method: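 Exchange rates were taken from single-exponential fits of the fluorescence time course as BODIPY-GDP on Ras was replaced by GTP. Compound went in first, then GTP and SOS. Mean rates plotted against concentration gave EC50 by four-parameter dose-response fitting.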

Son of Sevenless (SOS) = molecular target: T1, Son of Sevenless (SOS) (Homo sapiens, UniProt Q07889); test: Binding to SOS, fluorescence polarization anisotropy (FPA) probe displacement; conditions: displacement of FITC-conjugated probe (Example 285), affinity calculated from IC50
T1 sequence (Q07889 564-1049 limits assumed): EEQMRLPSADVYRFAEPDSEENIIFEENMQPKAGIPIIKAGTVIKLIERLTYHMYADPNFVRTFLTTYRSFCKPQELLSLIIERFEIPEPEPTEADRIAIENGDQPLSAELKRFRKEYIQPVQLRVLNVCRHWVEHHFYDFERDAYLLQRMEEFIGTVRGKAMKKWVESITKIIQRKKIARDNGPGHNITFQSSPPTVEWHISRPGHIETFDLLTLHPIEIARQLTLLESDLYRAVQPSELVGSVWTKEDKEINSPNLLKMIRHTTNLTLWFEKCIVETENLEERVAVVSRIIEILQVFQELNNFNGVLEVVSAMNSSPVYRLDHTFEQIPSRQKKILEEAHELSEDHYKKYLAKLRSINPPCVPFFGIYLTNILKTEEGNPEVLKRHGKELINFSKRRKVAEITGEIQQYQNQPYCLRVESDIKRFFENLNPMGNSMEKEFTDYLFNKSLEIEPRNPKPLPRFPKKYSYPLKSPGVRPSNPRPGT
Summary of the method: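 Test compounds were titrated against SOS pre-bound to a fluorescein-labelled probe, with anisotropy plotted versus compound concentration. Binding affinities were derived from IC50 values obtained by four-parameter dose-response fitting.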

Chain of Ras GEF SOS (Son of Sevenless) (P01112 1-166 partner limits assumed, one chain of several): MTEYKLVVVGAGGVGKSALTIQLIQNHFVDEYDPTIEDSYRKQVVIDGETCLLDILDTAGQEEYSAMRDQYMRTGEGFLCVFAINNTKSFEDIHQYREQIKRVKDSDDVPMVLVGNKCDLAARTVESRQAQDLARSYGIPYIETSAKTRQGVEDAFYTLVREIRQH

Row | Structure (SMILES) | IC50 [1] [µM] | EC50 [2] [µM] | Ki (Son of Sevenless (SOS)) [µM]
1 | Cc1cc(Cn2c(NCC3CNC3)nc3ccc(OC(C)C(F)(F)F)nc32)ccc1F (stereo not drawn) [Example 260, N-(azetidin-3-ylmethyl)-3-(4-fluoro-3-methylbenzyl)-5-((1,1,1-trifluoropropan-2-yl)oxy)-3H-imidazo[4,5-b]pyridin-2-amine] | < 1 | 5 to 30 | > 5
2 | Cc1cc(-c2ccccc2Cl)c2nc(N3CCNCC3)n(Cc3cc(C)c(F)c(C)c3)c2c1 [Example 267, 4-(2-chlorophenyl)-1-[(4-fluoro-3,5-dimethylphenyl)methyl]-6-methyl-2-piperazin-1-ylbenzimidazole] | 1 to 5 | < 1 | < 0.5
3 | Cc1cc(OC2CCNC2)c2nc(N3CCNCC3)n(Cc3cc(C)c(F)c(C)c3)c2c1 (stereo not drawn) [Example 317, 1-(4-fluoro-3,5-dimethylbenzyl)-6-methyl-2-(piperazin-1-yl)-4-(pyrrolidin-3-yloxy)-1H-benzo[d]imidazole] | 5 to 20 | < 1 | 0.5 to 1
